{
  "source": "patent US20250288535A1",
  "about": "“INSTANT NANOPARTICLE COMPOSITION AND PREPARATION METHOD THEREFOR” (CSPC ZHONGQI PHARMACEUTICAL TECHNOLOGY (SHIJIAZHUANG) CO., …, priority 2022, published 2025)",
  "experiment": "Tissue distribution in JIMT-1 tumor-bearing mice",
  "assay_type": "in vivo",
  "details": "20 mg/kg tail vein injection",
  "method": "48 human breast cancer JIMT-1 tumor-bearing mice were randomly divided into 2 experimental groups, with a total of 6 mice in each experimental group at each time point. Both of the two preparations were administered to the respective experimental mice at a dose of 20 mg/kg through tail vein injection. Blood samples were collected from each group at 0.25, 1, 3 and 24 hours after administration and the mice were sacrificed immediately. Tumor, heart, liver, spleen, lung, kidney, stomach, small intestine, pancreas and ovary tissues were dissected and subjected to pretreatments such as homogenization, the drug concentration in each tissue sample was determined by protein precipitation-LC/MS/MS method, and the main pharmacokinetic parameters were calculated by using the non-compartmental model of Phoenix WinNonlin 8.0 software (Pharsight, USA).",
  "data": [
    {"compound": "CC(=O)O[C@H]1C(=O)[C@@]2(C)[C@H]([C@H](OC(=O)c3ccccc3)[C@]3(O)C[C@H](OC(=O)[C@H](O)[C@@H](NC(=O)c4ccccc4)c4ccccc4)C(C)=C1C3(C)C)[C@]1(OC(C)=O)CO[C@@H]1C[C@@H]2O", "note": "[paclitaxel]", "values": [
      {"measurement": "tissue with the highest exposure", "value": "highest exposure in the liver"}
    ]}
  ]
}
